One assay deals with T1, human legumain (hLEG) (Homo sapiens, UniProt Q99538).
T1 construct: inferred from the Ni-NTA purification of the proenzyme; made in house; host or cells: LEXSY P10 cells (Leishmania tarentolae expression system), secreted into the supernatant
T1 sequence (Q99538 18-323 limits assumed): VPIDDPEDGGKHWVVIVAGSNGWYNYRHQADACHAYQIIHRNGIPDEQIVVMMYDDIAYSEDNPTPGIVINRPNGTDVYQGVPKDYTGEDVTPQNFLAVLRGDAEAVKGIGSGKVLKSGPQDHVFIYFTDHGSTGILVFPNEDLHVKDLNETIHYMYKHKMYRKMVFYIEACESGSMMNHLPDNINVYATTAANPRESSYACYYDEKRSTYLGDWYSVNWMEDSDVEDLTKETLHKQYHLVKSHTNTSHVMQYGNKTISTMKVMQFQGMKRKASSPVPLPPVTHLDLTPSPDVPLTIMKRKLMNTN
The experiment in a line: Enzyme kinetic assay with fluorogenic AMC substrates, hLEG. It counts as biochemical. The following applies: 2 nM hLEG; for Km: 50 mM citric acid pH 5.5, 100 mM NaCl, 0.05% Tween-20, 37°C, ex 380/em 460 nm, Michaelis-Menten (Z-AAN-AMC) or substrate inhibition model (Z-VAN-AMC). As for the experimental part:
K m values for the substrates Z‐AAN‐AMC (benzyloxycarbonyl‐Ala‐Ala‐Asn‐7‐amino‐4‐methylcoumarin) and Z‐VAN‐AMC (benzyloxycarbonyl‐Val‐Ala‐Asn‐7‐amino‐4‐methylcoumarin) toward hLEG were determined in 50 mM citric acid buffer (pH 5.5) containing 100 mM NaCl and 0.05% Tween‐20. Reactions were carried out at 37°C with 2 nM hLEG. Substrate concentrations ranged from 100 to 0.787 μM for Z‐AAN‐AMC and from 75 to 0.28 μM for Z‐VAN‐AMC.
Reactions were initiated by addition of the enzyme, and fluorescence was monitored in a microplate reader (CLARIOstar Plus with Voyager v2405 software, BMG Labtech) at 380 nm excitation and 460 nm emission. All measurements were performed in triplicate (n = 3).
Data analysis was performed in GraphPad Prism (v9.3.1; GraphPad Software, La Jolla, CA) using the built‐in Michaelis–Menten model for Z‐AAN‐AMC and the substrate inhibition model for Z‐VAN‐AMC. Data points corresponding to 23.73 μM Z‐VAN‐AMC were excluded from analysis, as a linear fit of the initial slope was not possible. Standard errors of the curve fits are reported for all fitted parameters.

The next assay concerns AtLEGβ. The following applies: ref Dall et al., [2020]; cited from earlier work. The text has this:
To probe non‐prime side specificity, we constructed a second peptide library using the format XXXN‐CL, fixing P1' as cysteine and P2' as leucine, based on the highest‐scoring sequences from the prime‐side screen. […] Thr and Val were especially well tolerated, a trend that persisted when P2 was fixed as Ala and P3/P4 were varied (Figure S7b). These predictions were validated experimentally by comparing AtLEGβ affinity for Z‐AAN‐AMC versus Z‐VAN‐AMC fluor ...

The mark [1] stands for this setting: pH 5.5, 37°C, n = 3, ± standard error of fit (Figure 9).

Where a SMILES comes first, the peptide text is derived from it. The star is where a group is joined. AMC = Cc1cc(=O)oc2cc(N*)ccc12; Cbz = O=C(OCc1ccccc1)*

These results are taken from PMC13052201, “Positional scanning and computational modeling reveal determinants of legumain transpeptidase activity” (Protein Science : A Publication of the Protein Society, 2026).

Take `Cc1cc(=O)oc2cc(NC(=O)[C@H](CC(N)=O)NC(=O)[C@H](C)NC(=O)[C@@H](NC(=O)OCc3ccccc3)C(C)C)ccc12` [Z‐VAN‐AMC, benzyloxycarbonyl‐Val‐Ala‐Asn‐7‐amino‐4‐methylcoumarin] (Cbz-Val-Ala-Asn-{AMC}): the Km is about 20 µM on human legumain (hLEG) (n = 3, ± standard error of fit); 19.6 ± 5.32 µM on human legumain (hLEG) (n = 3, ± standard error of fit, listed as Z-VAN-AMC); 57 ± 3 µM with AtLEGβ. Moreover, at human legumain (hLEG) (pH 5.5, 37°C), the “Vmax ratio Z-VAN-AMC vs Z-AAN-AMC” value is ~ 20 fold. Also, the Vmax on human legumain (hLEG) (pH 5.5, 37°C, n = 3) is 7800 RFU/s; on human legumain (hLEG) (setting [1]), 7776 ± 1591 RFU/sec. The Ki on human legumain (hLEG) (pH 5.5, 37°C, substrate inhibition model, n = 3, ± standard error of fit) came to 16.2 ± 4.5 µM.
Regarding “benzyloxycarbonyl‐Ala‐Ala‐Asn‐7‐amino‐4‐methylcoumarin [Z‐AAN‐AMC]”, the Km on human legumain (hLEG) (n = 3, ± standard error of fit) is 55 µM; on human legumain (hLEG) (n = 3, ± standard error of fit, listed as Z-AAN-AMC), 55.5 ± 2.4 µM; in the assay with AtLEGβ it was 337 ± 3 µM. Also, the Vmax at human legumain (hLEG) (pH 5.5, 37°C, n = 3) is given as 400 RFU/s; on human legumain (hLEG) (setting [1]) it was 399.6 ± 8.6 RFU/sec.
